{"source": "patent US12655130B2", "about": "(ASSEMBLY BIOSCIENCES, INC., priority 2020, dated 2026)", "system": "HBV viral load (viral production from HepAD38 cells)", "experiment": "Activity of test compounds on viral production from HepAD38 cells (viral load by qPCR of HBV core sequence)", "assay_type": "cell-based", "details": "Hepatitis B virus, HePAD38, 120 h, viral load lowering, 5 days, qPCR of supernatant, read-out: VL HepAD38 EC50 range", "procedure,_shortened": "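EC50 and CC50 come from four-parameter logistic fits: HBV core DNA in supernatant by TaqMan qPCR against DNA standards, normalised to DMSO controls, and cell viability by CellTiter-Glo. Cells were plated at 50,000/well without tetracycline (2% FBS) and exposed to compounds (highest 10 μM) for 5 days, 37 °C.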", "data": [{"smiles": "Cn1cnc(C2CC3CC(O)(c4cc(C(F)(F)F)n[nH]4)CC3C2)c1C(=O)Nc1ccc(F)c(C#N)c1", "note": "(centres unmarked) [Example 194, N-(3-Cyano-4-fluorophenyl)-4-(5-hydroxy-5-(3-(trifluoromethyl)-1H-pyrazol-5-yl)octahydropentalen-2-yl)-1-methyl-1H-imidazole-5-carboxamide]", "values": [{"measurement": "EC50", "result": "10 to 50", "unit": "nM"}]}, {"smiles": "Cn1cnc(C2CC3CC(O)(c4[nH]nc(C(F)(F)F)c4Br)CC3C2)c1C(=O)Nc1ccc(F)c(C#N)c1", "note": "(centres unmarked) [Example 195, 4-(5-(4-Bromo-3-(trifluoromethyl)-1H-pyrazol-5-yl)-5-hydroxyoctahydropentalen-2-yl)-N-(3-cyano-4-fluorophenyl)-1-methyl-1H-imidazole-5-carboxamide]", "values": [{"measurement": "EC50", "result": "< 10", "unit": "nM"}]}, {"smiles": "CC(C)Cc1cc(C2(O)CC3CC(c4ncn(C)c4C(=O)Nc4ccc(F)c(Cl)c4)CC3C2)n(C)n1", "note": "(centres unmarked) [Example 196, N-(3-Chloro-4-fluorophenyl)-4-(5-hydroxy-5-(3-isobutyl-1-methyl-1H-pyrazol-5-yl)octahydropentalen-2-yl)-1-methyl-1H-imidazole-5-carboxamide]", "values": [{"measurement": "EC50", "result": "< 10", "unit": "nM"}]}, {"smiles": "Cn1cnc(C2CC3CC(O)(c4cc(NCC(F)(F)F)nn4C)CC3C2)c1C(=O)Nc1ccc(F)c(Cl)c1", "note": "(centres unmarked) [Example 197, N-(3-Chloro-4-fluorophenyl)-4-(5-hydroxy-5-(1-methyl-3-((2,2,2-trifluoroethyl)amino)-1H-pyrazol-5-yl)octahydropentalen-2-yl)-1-methyl-1H-imidazole-5-carboxamide]", "values": [{"measurement": "EC50", "result": "< 10", "unit": "nM"}]}, {"smiles": "Cn1cnc(C2CC3CC(O)(c4cc(NS(C)(=O)=O)nn4C)CC3C2)c1C(=O)Nc1ccc(F)c(Cl)c1", "note": "(centres unmarked) [Example 198, N-(3-Chloro-4-fluorophenyl)-4-(5-hydroxy-5-(1-methyl-3-(methylsulfonamido)-1H-pyrazol-5-yl)octahydropentalen-2-yl)-1-methyl-1H-imidazole-5-carboxamide]", "values": [{"measurement": "EC50", "result": "10 to 50", "unit": "nM"}]}, {"smiles": "CN(C)c1cc(C2(O)CC3CC(c4ncn(C)c4C(=O)Nc4ccc(F)c(Cl)c4)CC3C2)n(C)n1", "note": "(centres unmarked) [Example 199, N-(3-Chloro-4-fluorophenyl)-4-(5-(3-(dimethylamino)-1-methyl-1H-pyrazol-5-yl)-5-hydroxyoctahydropentalen-2-yl)-1-methyl-1H-imidazole-5-carboxamide]", "values": [{"measurement": "EC50", "result": "< 10", "unit": "nM"}]}, {"smiles": "CCNc1cc(C2(O)CC3CC(c4ncn(C)c4C(=O)Nc4ccc(F)c(Cl)c4)CC3C2)n(C)n1", "note": "(centres unmarked) [Example 200, N-(3-Chloro-4-fluorophenyl)-4-(5-(3-(ethylamino)-1-methyl-1H-pyrazol-5-yl)-5-hydroxyoctahydropentalen-2-yl)-1-methyl-1H-imidazole-5-carboxamide]", "values": [{"measurement": "EC50", "result": "< 10", "unit": "nM"}]}, {"smiles": "CNS(=O)(=O)Nc1cc(C2(O)CC3CC(c4ncn(C)c4C(=O)Nc4ccc(F)c(Cl)c4)CC3C2)n(C)n1", "note": "(centres unmarked) [Example 201, N-(3-Chloro-4-fluorophenyl)-4-(5-hydroxy-5-(1-methyl-3-((N-methylsulfamoyl)amino)-1H-pyrazol-5-yl)octahydropentalen-2-yl)-1-methyl-1H-imidazole-5-carboxamide]", "values": [{"measurement": "EC50", "result": "< 10", "unit": "nM"}]}, {"smiles": "CC(CO)Oc1cc(C2(O)CC3CC(c4ncn(C)c4C(=O)Nc4ccc(F)c(Cl)c4)CC3C2)n(C)n1", "note": "(centres unmarked) [Example 202, N-(3-Chloro-4-fluorophenyl)-4-(5-hydroxy-5-(3-((1-hydroxypropan-2-yl)oxy)-1-methyl-1H-pyrazol-5-yl)octahydropentalen-2-yl)-1-methyl-1H-imidazole-5-carboxamide]", "values": [{"measurement": "EC50", "result": "< 10", "unit": "nM"}]}, {"smiles": "CCC(O)COc1cc(C2(O)CC3CC(c4ncn(C)c4C(=O)Nc4ccc(F)c(Cl)c4)CC3C2)n(C)n1", "note": "(centres unmarked) [Example 203, N-(3-Chloro-4-fluorophenyl)-4-(5-hydroxy-5-(3-(2-hydroxybutoxy)-1-methyl-1H-pyrazol-5-yl)octahydropentalen-2-yl)-1-methyl-1H-imidazole-5-carboxamide]", "values": [{"measurement": "EC50", "result": "< 10", "unit": "nM"}]}, {"smiles": "Cn1cnc(C2CC3CC(O)(c4cc(OCC(O)CO)nn4C)CC3C2)c1C(=O)Nc1ccc(F)c(Cl)c1", "note": "(centres unmarked) [Example 204, N-(3-Chloro-4-fluorophenyl)-4-(5-(3-(2,3-dihydroxypropoxy)-1-methyl-1H-pyrazol-5-yl)-5-hydroxyoctahydropentalen-2-yl)-1-methyl-1H-imidazole-5-carboxamide]", "values": [{"measurement": "EC50", "result": "< 10", "unit": "nM"}]}]}
